Test results: patent US5451506A, “Oncostatin M and novel compositions having anti-neoplastic activity” (Oncogen Limited Partnership, priority 1993, dated 1995)

Columns and labels:
[1] = tested on: HTB10 neuroblastoma cells; experiment: Cell growth modulatory assay using 3H-thymidine incorporation into DNA (GIA); type: cell-based, human
Method: (§1) The assays were performed in 96 flat well plates (Costar 3596). Human melanoma cells (A375) (3×10^3 /100 μl) or cells from another cell line of interest were at an appropriate cell density used. Cells in 100 μl growth medium were placed in each well. Three hours later, 100 μl of test sample in growth medium was added to each well. Plates were incubated at 37° C. for 3 days. Then 25 μl (0.5 μCi) of a solution of ^3 H-thymidine (specific activity 27 μCi/μg) was added to each well for the final 6 hours of incubation. The cells were then transferred to glass filter strips using a multiwell harvester (PHD Cell Harvester, Cambridge Technology, Inc.). The filters were transferred to scintillation vials. Two ml of scintillation fluid (ScientiVerse II, Fisher Scientific Co.) was added and the samples counted in a scintillation counter to quantitate ^3 H-thymidine incorporation.
The effect of Oncostatin M on various cell lines was assessed using a cell growth modulatory assay performed as described in Example 1B, above. The cell lines tested included A549 lung cancer cells. HTB10 neuroblastoma cells, and A375 melanoma cells.

A375 cells [2] = experiment: Growth inhibition assay (A375 proliferation; synergy tests); type: cell-based, human; details: 1.8 U/ml, alone
Method: A375 melanoma cells (4×10^3 cells/50 μl), Mv1Lu mink lung epithelial cells (3.5×10^3 cells/50 μl), or other cell line of interest at an appropriate cell density were subcultured for four hours on flat-bottomed 96-well tissue culture plates (Costar 3596, Cambridge, Mass.) in growth medium comprising Dulbecco's modified Eagle's medium (DMEM), supplemented with 10% heat-in-activated fetal bovine serum, and P/S. Test samples to be assayed for growth inhibition were diluted in growth medium and assayed in triplicate with 50 μl of the diluted sample added to each well. The cells were incubated for 72 hours at 37° C.
The growth inhibitory activity of highly purified TGF-β1, recombinant gamma-interferon (rIFN-γ), and Oncostatin M on A375 cells was determined, and possible synergy between TGF-β1 and Oncostatin M, TGF-β1 and rIFN-γ, and Oncostatin M and rIFN-γ in inhibiting A375 proliferation was tested. […] is expressed in units of Mv1Lu growth inhibitory activity, rIFN-γ in units of anti-viral activity and Oncostatin M in units of A375 growth inhibitory activity. Concentrations of TGF-β1 (1-30 U/ml) and Oncostatin M (0.5-10 U/ml) were chosen which caused either no or only minimal growth inhibition when tested individually.

MCF-7 breast tumor cells = experiment: Inhibition of 3H-TdR incorporation, Oncostatin M and TNF-α; type: cell-based, human; details: MCF-7 Cells
Method: as §1
Inhibition of ^3 H-TdR incorporation into A375 cells and MCF-7 cells were compared using the assay described in Example 1B, above. The cells were treated with either Oncostatin M alone, TNF-α (Amgen Biologicals, human recombinant TNF-α) alone, or with a combination of Oncostatin M and TNF-α.

A375 melanoma cells = experiment: Soft agar colony inhibition assay (TGI); type: cell-based, human; details: 11 days; for # Colonies: untreated 106
Method: A 0.5 ml base layer of 0.5% agar (Agar Noble; Difco Laboratories, Detroit, Mich.) in growth medium was added to 24-well Costar tissue culture plates. One-half ml 0.3% agar in growth medium containing 1 to 2.5×10^3 A375 cells or other cell line of interest at an appropriate cell density, and various concentrations of the factor to be tested were overlaid on the base layer of agar. The plates were incubated at 37° C. in a humidified atmosphere of 5% CO2 in air and refed after 7 days by addition of 0.5 ml of 0.3% agar in growth medium containing the same concentration of the factor to be tested as used previously. Colonies were enumerated unfixed and unstained. The number of colonies with greater than 6 cells were scored.
A375 cells were plated in soft agar, with or without the indicated GIA units of Oncostatin M (see Table 3), as described above in Example 1C. The factor used was from a C18^3 propanol column fraction with peak tumor growth inhibitory activity (GIA). The number of colonies was enumerated at 11 days.

WI26 fibroblasts = experiment: Cell growth modulatory assay using 3H-thymidine incorporation into DNA (GIA); type: cell-based, human
Method: as §1
(§2) Human tumor cells (A375 melanoma cells, A549 lung cancer cells, HBT10 neuroblastoma cells, and SK-MEL28 melanoma cells) were seeded at 3×10^3 cells/well and normal fibroblasts (WI26 cells and WI38 cells) at 1.5×10^3 cells/well in 96-well plates. Various concentrations of purified Oncostatin M, obtained from the fraction from the C18^3 column with peak antiproliferative activity against A375 cells were used. The assay was performed as described in Example 1B above.

SK-MEL28 melanoma cells = experiment: as above; type: cell-based, human
Method: as §1, §2

WI38 fibroblasts = experiment: as above; type: cell-based, human
Method: as §1, §2

A375 cells [3] = experiment: Effect of acid, base and heat treatments on tumor growth inhibitory activity; type: cell-based, human
Method: as §1
U937 cells (RPMI 1640+5% FCS seeded at 7.5×10^5 cells/ml) were treated with TPA (10 ng/ml) for 3 days. The cells were then washed with medium (serum-free RPMI 1640) and incubated for 24 hr in serum-free (serum-free RPMI 1640) medium before collecting the supernatants. The supernatants were treated with 1N acetic acid or 1N ammonium hydroxide. They were then dialyzed against medium (serum-free RPMI 1640) and tested for their ability to inhibit ^3 H-thymidine incorporation into A375 cells using the assay as described in Example 1B

bone marrow cells = experiment: Granulocytic/myelocytic colony formation from bone marrow cells; type: cell-based; details: concentrations up to 100 GIA units/ml
[4] = tested on: human proliferative or cytotoxic T cell responses; experiment: Mixed leukocyte culture reactions (MLC); type: cell-based; details: 500 GIA units/ml

Oncostatin M: Human polypeptide growth regulator produced by activated leukocytes; apparent molecular weight approximately 28 kD by PAGE
% Inhibition of 3H-thymidine incorporated ([1]; Exp. 2, HTB10, 3 GIA units/well): 11% | % Inhibition of 3H-thymidine incorporated ([1]; Exp. 2, HTB10, 9 GIA units/well): 22% | % Inhibition of 3H-thymidine incorporated ([1]; Exp. 2, HTB10, 27 GIA units/well): 28% | GIA Units to Cause 30% Inhibition 3H-TDR Incorporation ([1]; HTB10 (neuroblastoma)): 81.0 GIA Units | concentration to cause 30% inhibition 3H-TdR ([1]; HTB10, based upon the specific activity of purified Oncostatin M): ~4.0 ng/mL | Inhibition of cell growth (A375 cells [2]): 12% | Observed % Inhibition of 3H-TdR Incorporation (MCF-7 breast tumor cells): 18% | % Inhibition of Colony Formation (A375 melanoma cells; 27 GIA Units/Well): 89% | # Colonies (A375 melanoma cells; 27 GIA Units/Well): 11 | % Inhibition of Colony Formation (A375 melanoma cells; 45 GIA Units/Well): 69% | # Colonies (A375 melanoma cells; 45 GIA Units/Well): 32 | % Inhibition of Colony Formation (A375 melanoma cells; 83 GIA Units/Well): 94% | # Colonies (A375 melanoma cells; 83 GIA Units/Well): 6 | % Inhibition of Colony Formation (A375 melanoma cells; 250 GIA Units/Well): 96% | # Colonies (A375 melanoma cells; 250 GIA Units/Well): 4 | % Stimulation of 3H-thymidine incorporated (WI26 fibroblasts; Exp. 2, WI26, 3 GIA units/well): 52% | % Stimulation of 3H-thymidine incorporated (WI26 fibroblasts; Exp. 2, WI26, 9 GIA units/well): 36% | % Stimulation of 3H-thymidine incorporated (WI26 fibroblasts; Exp. 2, WI26, 27 GIA units/well): 46% | Cytotoxic activity (WI26 fibroblasts; WI26 human fibroblasts): lacks cytotoxic activity | % Inhibition of 3H-thymidine incorporated (SK-MEL28 melanoma cells; Exp. 4, SK-MEL28, 1 GIA units/well): 11% | % Inhibition of 3H-thymidine incorporated (SK-MEL28 melanoma cells; Exp. 4, SK-MEL28, 5 GIA units/well): 25% | % Inhibition of 3H-thymidine incorporated (SK-MEL28 melanoma cells; Exp. 4, SK-MEL28, 20 GIA units/well): 44% | % Stimulation of 3H-thymidine incorporated (WI38 fibroblasts; Exp. 1, WI38, 1 GIA units/well): 46% | % Stimulation of 3H-thymidine incorporated (WI38 fibroblasts; Exp. 1, WI38, 4 GIA units/well): 30% | % Stimulation of 3H-thymidine incorporated (WI38 fibroblasts; Exp. 1, WI38, 16 GIA units/well): 25% | Cytotoxic activity (WI38 fibroblasts; WI38 human fibroblasts): lacks cytotoxic activity | Resistance to inactivation by acid and base (A375 cells [3]; 1N acetic acid and 1N ammonium hydroxide, dialyzed supernatant): substantially resistant to inactivation | Heat stability of activity (A375 cells [3]; 56° C. for 1 hr): retain its activity | Heat stability of activity (A375 cells [3]; 95° C. for 30 min): lose substantially all its activity | Granulocytic/myelocytic colony formation (bone marrow cells): does not inhibit granulocytic/myelocytic colony formation | Proliferative or cytotoxic T cell responses in MLC [4]: does not suppress
